Earlier results, collected in patent US20220273646A1, “PHARMACEUTICAL COMPOSITION OF TEMOZOLOMIDE” (INTAS PHARMACEUTICALS LTD., priority 2019, published 2022).
Read-outs that look alike come from different tables or passages of the source.

Key:
[1] = extemporaneously prepared oral suspensions from capsules, 4° C.
[2] = solution from powder for intravenous infusion

In the case of `Cn1nnc2c(C(N)=O)ncn2c1=O` [Temozolomide, 4-methyl-5-oxo-2,3,4,6,8-pentazabicyclo[4.3.0] nona-2,7,9-triene-9-carboxamide], the “time found chemically stable” value [1] is listed as “at least 60 days”, the temozolomide remained intact ([2]; 1.25 mg/mL, 13 weeks at 5° C.) is listed as “more than 90%” and the temozolomide remained intact ([2]; 2.5 mg/mL, 9 days at room temperature) is listed as “more than 90%”.
